According to the supplement of paper PMC10307832:

Legend:
Test in all cases: relative viability (nuclei count vs DMSO), 5 days (fraction); higher = more cells survive
AZD5582 + Tozasertib = compound: C[C@@H](C(=O)N[C@@H](C1CCCCC1)C(=O)N2CCC[C@H]2C(=O)N[C@@H]3[C@@H](CC4=CC=CC=C34)OCC#CC#CCO[C@@H]5CC6=CC=CC=C6[C@@H]5NC(=O)[C@@H]7CCCN7C(=O)[C@H](C8CCCCC8)NC(=O)[C@H](C)NC)NC [AZD5582] + Cc1cc(Nc2cc(N3CCN(C)CC3)nc(Sc3ccc(NC(=O)C4CC4)cc3)n2)n[nH]1 [Tozasertib] (partner 0.1 µM)
How it was run: (§1)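 Dosing by pin tool came one day after lung cancer cell lines were seeded in 1536-well plates, using either one drug or a fixed anchor-drug dose plus five library-drug doses (not always all listed) in √10 steps. After 5 days, nuclei were counted on 4× images. Relative viability is treated-well nuclei count divided by vehicle-well nuclei count, and values are medians of duplicate plates.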

AZD5582 + AZD7762 = compound: C[C@@H](C(=O)N[C@@H](C1CCCCC1)C(=O)N2CCC[C@H]2C(=O)N[C@@H]3[C@@H](CC4=CC=CC=C34)OCC#CC#CCO[C@@H]5CC6=CC=CC=C6[C@@H]5NC(=O)[C@@H]7CCCN7C(=O)[C@H](C8CCCCC8)NC(=O)[C@H](C)NC)NC [AZD5582] + NC(=O)Nc1cc(-c2cccc(F)c2)sc1C(=O)N[C@H]1CCCNC1 [AZD7762] (partner 0.2 µM)
How it was run: as §1

AZD5582 + Pemetrexed = compound: C[C@@H](C(=O)N[C@@H](C1CCCCC1)C(=O)N2CCC[C@H]2C(=O)N[C@@H]3[C@@H](CC4=CC=CC=C34)OCC#CC#CCO[C@@H]5CC6=CC=CC=C6[C@@H]5NC(=O)[C@@H]7CCCN7C(=O)[C@H](C8CCCCC8)NC(=O)[C@H](C)NC)NC [AZD5582] + Nc1nc2[nH]cc(CCc3ccc(C(=O)N[C@@H](CCC(=O)O)C(=O)O)cc3)c2c(=O)[nH]1 [Pemetrexed] (partner 0.2 µM)
How it was run: as §1

[1] = compound: Cn1nnc2c(C(N)=O)ncn2c1=O [Temozolomide] + N=C(N)NC(=N)NCCc1ccccc1 [Phenformin] (partner 250 µM)
How it was run: as §1

NCI-H441 gave a relative viability (AZD5582 + Tozasertib; first compound 0.001581 µM) of 0.581, a relative viability (AZD5582 + Tozasertib; first compound 0.005 µM) of 0.653 and a relative viability (AZD5582 + Tozasertib; first compound 0.05 µM) of 0.587. The relative viability (AZD5582 + AZD7762; first compound 0.001581 µM) was 0.942, the relative viability (AZD5582 + AZD7762; first compound 0.005 µM) was 0.895 and the relative viability (AZD5582 + AZD7762; first compound 0.01581 µM) was 1.02. It also gave a relative viability (AZD5582 + AZD7762; first compound 0.05 µM) of 0.867, a relative viability (AZD5582 + Pemetrexed; first compound 0.001581 µM) of 0.253 and a relative viability (AZD5582 + Pemetrexed; first compound 0.005 µM) of 0.314. It also gave a relative viability (AZD5582 + Pemetrexed; first compound 0.01581 µM) of 0.292, a relative viability (AZD5582 + Pemetrexed; first compound 0.05 µM) of 0.253 and a relative viability ([1]; first compound 0.2 µM) of 1.07. For the same cell line, the relative viability ([1]; first compound 0.6325 µM) was 0.892, the relative viability ([1]; first compound 2 µM) was 0.93 and the relative viability ([1]; first compound 6.325 µM) was 0.738. It also gave a relative viability ([1]; first compound 20 µM) of 0.944.
In the case of NCI-H460, the relative viability (AZD5582 + Tozasertib; first compound 0.001581 µM) is reported as 0.0814, the relative viability (AZD5582 + Tozasertib; first compound 0.005 µM) is reported as 0.495 and the relative viability (AZD5582 + Tozasertib; first compound 0.01581 µM) is reported as 0.509. It also gave a relative viability (AZD5582 + Tozasertib; first compound 0.05 µM) of 0.521, a relative viability (AZD5582 + AZD7762; first compound 0.001581 µM) of 0.516 and a relative viability (AZD5582 + AZD7762; first compound 0.005 µM) of 0.628. The relative viability (AZD5582 + AZD7762; first compound 0.01581 µM) was 0.562, the relative viability (AZD5582 + AZD7762; first compound 0.05 µM) was 0.639 and the relative viability (AZD5582 + Pemetrexed; first compound 0.001581 µM) was 0.0644. The relative viability (AZD5582 + Pemetrexed; first compound 0.005 µM) was 0.0659, the relative viability (AZD5582 + Pemetrexed; first compound 0.01581 µM) was 0.0592 and the relative viability (AZD5582 + Pemetrexed; first compound 0.05 µM) was 0.059. The relative viability ([1]; first compound 0.2 µM) was 0.52, the relative viability ([1]; first compound 0.6325 µM) was 0.54 and the relative viability ([1]; first compound 2 µM) was 0.492. For the same cell line, the relative viability ([1]; first compound 6.325 µM) was 0.488 and the relative viability ([1]; first compound 20 µM) was 0.478.
Work on NCI-H522 yielded a relative viability (AZD5582 + Tozasertib; first compound 0.001581 µM) of 0.592, a relative viability (AZD5582 + Tozasertib; first compound 0.005 µM) of 0.491 and a relative viability (AZD5582 + Tozasertib; first compound 0.01581 µM) of 0.594. It also gave a relative viability (AZD5582 + Tozasertib; first compound 0.05 µM) of 0.524, a relative viability (AZD5582 + AZD7762; first compound 0.001581 µM) of 0.982 and a relative viability (AZD5582 + AZD7762; first compound 0.005 µM) of 0.887. It also gave a relative viability (AZD5582 + AZD7762; first compound 0.01581 µM) of 0.885, a relative viability (AZD5582 + AZD7762; first compound 0.05 µM) of 0.645 and a relative viability (AZD5582 + Pemetrexed; first compound 0.001581 µM) of 0.989. It also gave a relative viability (AZD5582 + Pemetrexed; first compound 0.005 µM) of 1.13, a relative viability (AZD5582 + Pemetrexed; first compound 0.01581 µM) of 0.976 and a relative viability (AZD5582 + Pemetrexed; first compound 0.05 µM) of 0.823. The relative viability ([1]; first compound 0.2 µM) was 0.653, the relative viability ([1]; first compound 0.6325 µM) was 0.664 and the relative viability ([1]; first compound 2 µM) was 0.728. It also gave a relative viability ([1]; first compound 6.325 µM) of 0.626 and a relative viability ([1]; first compound 20 µM) of 0.629.
Cell Line NCI-H596 has a relative viability (AZD5582 + Tozasertib; first compound 0.01581 µM) of 0.943, a relative viability (AZD5582 + Tozasertib; first compound 0.05 µM) of 0.338 and a relative viability (AZD5582 + AZD7762; first compound 0.001581 µM) of 1.07. The relative viability (AZD5582 + AZD7762; first compound 0.01581 µM) was 1.11, the relative viability (AZD5582 + AZD7762; first compound 0.05 µM) was 0.38 and the relative viability (AZD5582 + Pemetrexed; first compound 0.001581 µM) was 0.323. The relative viability (AZD5582 + Pemetrexed; first compound 0.01581 µM) was 0.448, the relative viability (AZD5582 + Pemetrexed; first compound 0.05 µM) was 0.263 and the relative viability ([1]; first compound 0.2 µM) was 0.797. For the same cell line, the relative viability ([1]; first compound 0.6325 µM) was 0.827, the relative viability ([1]; first compound 2 µM) was 0.658 and the relative viability ([1]; first compound 6.325 µM) was 0.659. It also gave a relative viability ([1]; first compound 20 µM) of 0.787.
NCI-H647 showed a relative viability (AZD5582 + Tozasertib; first compound 0.001581 µM) of 0.269, a relative viability (AZD5582 + Tozasertib; first compound 0.005 µM) of 0.347 and a relative viability (AZD5582 + Tozasertib; first compound 0.01581 µM) of 0.255. For the same cell line, the relative viability (AZD5582 + Tozasertib; first compound 0.05 µM) was 0.357, the relative viability (AZD5582 + AZD7762; first compound 0.001581 µM) was 0.324 and the relative viability (AZD5582 + AZD7762; first compound 0.005 µM) was 0.394. It also gave a relative viability (AZD5582 + AZD7762; first compound 0.01581 µM) of 0.336, a relative viability (AZD5582 + AZD7762; first compound 0.05 µM) of 0.447 and a relative viability (AZD5582 + Pemetrexed; first compound 0.001581 µM) of 0.126. For the same cell line, the relative viability (AZD5582 + Pemetrexed; first compound 0.005 µM) was 0.14, the relative viability (AZD5582 + Pemetrexed; first compound 0.01581 µM) was 0.193 and the relative viability (AZD5582 + Pemetrexed; first compound 0.05 µM) was 0.124. It also gave a relative viability ([1]; first compound 0.2 µM) of 0.624, a relative viability ([1]; first compound 0.6325 µM) of 0.626 and a relative viability ([1]; first compound 2 µM) of 0.593. For the same cell line, the relative viability ([1]; first compound 6.325 µM) was 0.463 and the relative viability ([1]; first compound 20 µM) was 0.208.
NCI-H650 gave a relative viability (AZD5582 + Tozasertib; first compound 0.001581 µM) of 0.648, a relative viability (AZD5582 + Tozasertib; first compound 0.005 µM) of 0.876 and a relative viability (AZD5582 + Tozasertib; first compound 0.01581 µM) of 0.722. The relative viability (AZD5582 + Tozasertib; first compound 0.05 µM) was 0.628, the relative viability (AZD5582 + AZD7762; first compound 0.001581 µM) was 1.05 and the relative viability (AZD5582 + AZD7762; first compound 0.005 µM) was 1.07. It also gave a relative viability (AZD5582 + AZD7762; first compound 0.01581 µM) of 0.643, a relative viability (AZD5582 + AZD7762; first compound 0.05 µM) of 0.788 and a relative viability (AZD5582 + Pemetrexed; first compound 0.001581 µM) of 0.843. For the same cell line, the relative viability (AZD5582 + Pemetrexed; first compound 0.005 µM) was 0.959, the relative viability (AZD5582 + Pemetrexed; first compound 0.01581 µM) was 0.605 and the relative viability (AZD5582 + Pemetrexed; first compound 0.05 µM) was 0.644. It also gave a relative viability ([1]; first compound 0.2 µM) of 0.547, a relative viability ([1]; first compound 0.6325 µM) of 0.443 and a relative viability ([1]; first compound 2 µM) of 0.403. The relative viability ([1]; first compound 6.325 µM) was 0.404 and the relative viability ([1]; first compound 20 µM) was 0.423.
NCI-H838 gave a relative viability (AZD5582 + Tozasertib; first compound 0.001581 µM) of 0.265, a relative viability (AZD5582 + Tozasertib; first compound 0.005 µM) of 0.307 and a relative viability (AZD5582 + Tozasertib; first compound 0.05 µM) of 0.292. The relative viability (AZD5582 + AZD7762; first compound 0.001581 µM) was 0.87, the relative viability (AZD5582 + AZD7762; first compound 0.005 µM) was 0.903 and the relative viability (AZD5582 + AZD7762; first compound 0.01581 µM) was 0.81. It also gave a relative viability (AZD5582 + AZD7762; first compound 0.05 µM) of 1.01, a relative viability (AZD5582 + Pemetrexed; first compound 0.001581 µM) of 0.258 and a relative viability (AZD5582 + Pemetrexed; first compound 0.005 µM) of 0.246. For the same cell line, the relative viability (AZD5582 + Pemetrexed; first compound 0.01581 µM) was 0.235, the relative viability (AZD5582 + Pemetrexed; first compound 0.05 µM) was 0.262 and the relative viability ([1]; first compound 0.2 µM) was 0.63. The relative viability ([1]; first compound 0.6325 µM) was 0.616, the relative viability ([1]; first compound 2 µM) was 0.676 and the relative viability ([1]; first compound 6.325 µM) was 0.568. It also gave a relative viability ([1]; first compound 20 µM) of 0.635.
In the case of NCI-H1355, the relative viability (AZD5582 + Tozasertib; first compound 0.001581 µM) is reported as 0.488, the relative viability (AZD5582 + Tozasertib; first compound 0.005 µM) is reported as 0.558 and the relative viability (AZD5582 + Tozasertib; first compound 0.01581 µM) is reported as 0.52. For the same cell line, the relative viability (AZD5582 + Tozasertib; first compound 0.05 µM) was 0.6, the relative viability (AZD5582 + AZD7762; first compound 0.001581 µM) was 0.47 and the relative viability (AZD5582 + AZD7762; first compound 0.005 µM) was 0.667. It also gave a relative viability (AZD5582 + AZD7762; first compound 0.01581 µM) of 0.643, a relative viability (AZD5582 + AZD7762; first compound 0.05 µM) of 0.556 and a relative viability (AZD5582 + Pemetrexed; first compound 0.001581 µM) of 0.942. It also gave a relative viability (AZD5582 + Pemetrexed; first compound 0.005 µM) of 1, a relative viability (AZD5582 + Pemetrexed; first compound 0.01581 µM) of 0.986 and a relative viability (AZD5582 + Pemetrexed; first compound 0.05 µM) of 0.815. It also gave a relative viability ([1]; first compound 0.2 µM) of 0.499, a relative viability ([1]; first compound 0.6325 µM) of 0.517 and a relative viability ([1]; first compound 2 µM) of 0.522. It also gave a relative viability ([1]; first compound 6.325 µM) of 0.44 and a relative viability ([1]; first compound 20 µM) of 0.452.
